Measured values: patent publication US9403846B2, “Carbocyclic- and heterocyclic-substituted hexahydropyrano[3,4-d][1,3]thiazin-2-amine compounds” (Pfizer Inc., priority 2012, dated 2016)
Where a name gives a salt, the structure may show the parent alone.

Key:
BACE1 enzyme = BACE1 enzyme (Homo sapiens (Human), UniProt P56817); test: BACE1 Cell-Free Assay (fluorescence polarization);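 for all read-outs here: Affinity-purified soluble BACE1 from transfected CHO-K1 cells cleaving a biotinylated, Oregon Green-labelled synthetic APP peptide, 3 h at 37 °C, cleavage followed by fluorescence polarization change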; format: biochemical; conditions: for IC50: geometric mean of 2-3 determinations (Ex. 2: ≧6 determinations); for biological activity (in words, see Table 3): statement used to assign absolute stereochemistry, refers to Table 3
[1] = test system: sAPPβ levels in H4 human neuroglioma cells over-expressing the wild-type human APP695; test: Whole Cell Assay (In Vitro sAPPb Assay); format: cell-based; conditions: 18 hours, geometric mean of 2-3 determinations (Ex. 2: ≧6 determinations)
BACE2 enzyme = BACE2 enzyme (Homo sapiens (Human), UniProt Q9Y5Z0); test: BACE2 Assay (cell-free, fluorescence polarization); format: biochemical; conditions: single determination
Description: This assay measures the inhibition of the BACE2 enzyme as it cleaves a non-native peptide. A synthetic substrate that can be cleaved by BACE2 having N-terminal biotin and made fluorescent by the covalent attachment of Oregon Green at the Cys residue is used to assay BACE2 activity in the presence or absence of the inhibitory compounds. The substrate is Biotin-[…]-C(Oregon green)-KK-OH. The BACE2 enzyme is available from Enzo Life Sciences (Cat # BML-SE550). Compounds are incubated in a ½ log dose response curve from a top concentration of 100 μM with BACE2 enzyme and the biotinylated fluorescent peptide in 384-well black plates (Thermo Scientific #4318). BACE2 is at a final concentration of 2.5 nM with a final concentration of peptide substrate of 150 nM in a reaction volume of 30 μL assay buffer (100 mM sodium acetate, pH 4.5 (brought to pH with acetic acid), and 0.001% Tween-20). Plates are covered and incubated for 3 hours at 37° C. The reaction is stopped with the addition of 30 μL of 1.5 μM Streptavidin (Pierce, #21125). After a 10 minute incubation at room temperature, plates are read on a PerkinElmer EnVision for fluorescence polarization (Ex485 nm/Em530 nm). The activity of the beta-secretase enzyme is detected by changes in the fluorescence polarization that occur when the substrate is cleaved by the enzyme.

Sequence of BACE1 enzyme (P56817 46-457): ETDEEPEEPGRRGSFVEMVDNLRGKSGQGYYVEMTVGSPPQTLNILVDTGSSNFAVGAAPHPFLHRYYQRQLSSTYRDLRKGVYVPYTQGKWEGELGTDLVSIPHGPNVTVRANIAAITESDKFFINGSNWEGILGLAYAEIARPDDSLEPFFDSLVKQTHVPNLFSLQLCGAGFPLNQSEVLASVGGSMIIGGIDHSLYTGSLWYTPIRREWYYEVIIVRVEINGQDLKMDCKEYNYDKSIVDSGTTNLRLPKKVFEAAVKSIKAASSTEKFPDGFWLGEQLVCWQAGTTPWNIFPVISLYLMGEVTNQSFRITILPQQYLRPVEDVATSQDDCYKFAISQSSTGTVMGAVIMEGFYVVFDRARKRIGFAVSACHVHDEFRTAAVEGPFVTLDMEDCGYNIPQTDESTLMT
Sequence of BACE2 enzyme (Q9Y5Z0 63-518): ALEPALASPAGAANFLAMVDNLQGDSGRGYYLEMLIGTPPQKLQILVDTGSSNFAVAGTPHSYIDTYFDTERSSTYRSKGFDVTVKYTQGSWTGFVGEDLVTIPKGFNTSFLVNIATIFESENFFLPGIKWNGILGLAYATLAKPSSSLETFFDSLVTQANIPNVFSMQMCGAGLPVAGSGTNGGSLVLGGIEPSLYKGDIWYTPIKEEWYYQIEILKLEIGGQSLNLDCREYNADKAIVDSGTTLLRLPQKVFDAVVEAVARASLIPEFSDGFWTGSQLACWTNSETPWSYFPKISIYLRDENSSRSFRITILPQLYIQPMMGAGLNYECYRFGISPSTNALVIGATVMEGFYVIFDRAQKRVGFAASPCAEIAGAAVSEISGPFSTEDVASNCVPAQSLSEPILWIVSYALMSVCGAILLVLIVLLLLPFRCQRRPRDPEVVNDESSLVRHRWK

SMILES	IC50 (BACE1 enzyme)	IC50 ([1]; Homo sapiens)	IC50 (BACE2 enzyme)	biological activity (in words, see Table 3) (BACE1 enzyme)	IC50 [1]
COC[C@H]1SC(N)=N[C@@]2(c3ccc(F)cc3F)CO[C@@H](C3CC3)C[C@@H]12 (racemic) [Example 5, rel-(4S,4aR,6R,8aS)-6-Cyclopropyl-8a-(2,4-difluorophenyl)-4-(methoxymethyl)-4,4a,5,6,8,8a-hexahydropyrano[3,4-d][1,3]thiazin-2-amine, hydrochloride salt]	1410 nM	116 nM			
NC1=N[C@@]2(c3ccc(F)cc3F)CO[C@@H](C3CCCO3)C[C@H]2CS1 (stereo partly drawn) [Example 1, (4aR,6R,8aS)-8a-(2,4-Difluorophenyl)-6-(tetrahydrofuran-2-yl)-4,4a,5,6,8,8a-hexahydropyrano[3,4-d][1,3]thiazin-2-amine, trifluoroacetate salt]	447 nM	73.8 nM	1290 nM		
NC1=N[C@@]2(c3ccc(F)cc3F)CO[C@@H](C3CC3)C[C@H]2CS1 [Example 2, (4aR,6R,8aS)-6-Cyclopropyl-8a-(2,4-difluorophenyl)-4,4a,5,6,8,8a-hexahydropyrano[3,4-d][1,3]thiazin-2-amine]		24.2 nM	2260 nM		
C[C@H]1SC(N)=N[C@@]2(c3ccc(F)cc3F)CO[C@@H](C3CC3)C[C@@H]12 [Example 3, (4R,4aR,6R,8aS)-6-Cyclopropyl-8a-(2,4-difluorophenyl)-4-methyl-4,4a,5,6,8,8a-hexahydropyrano[3,4-d][1,3]thiazin-2-amine, trifluoroacetate salt]	337 nM	38.9 nM	2490 nM		
NC1=N[C@@]2(c3ccc(F)cc3F)CO[C@@H](C3CCO3)C[C@H]2CS1 (stereo partly drawn) [Example 4, (4aR,6R,8aS)-8a-(2,4-Difluorophenyl)-6-(oxetan-2-yl)-4,4a,5,6,8,8a-hexahydropyrano[3,4-d][1,3]thiazin-2-amine]	1310 nM	137 nM			
NC1=N[C@@]2(c3ccc(F)cc3F)CO[C@@H](C3CC3)C[C@H]2[C@@H](CF)S1 [Example 6, (4S,4aR,6R,8aS)-6-Cyclopropyl-8a-(2,4-difluorophenyl)-4-(fluoromethyl)-4,4a,5,6,8,8a-hexahydropyrano[3,4-d][1,3]thiazin-2-amine, hydrochloride salt]	346 nM	39.1 nM			
CC1([C@H]2C[C@H]3CSC(N)=N[C@@]3(c3ccc(F)cc3F)CO2)CC1 [Example 7, (4aR,6R,8aS)-8a-(2,4-Difluorophenyl)-6-(1-methylcyclopropyl)-4,4a,5,6,8,8a-hexahydropyrano[3,4-d][1,3]thiazin-2-amine]	484 nM	142 nM			
NC1=N[C@@]2(c3ccc(F)cc3F)CO[C@@H](CC3CC3)C[C@H]2CS1 [Example 8, (4aR,6S,8aS)-6-(Cyclopropylmethyl)-8a-(2,4-difluorophenyl)-4,4a,5,6,8,8a-hexahydropyrano[3,4-d][1,3]thiazin-2-amine]	235 nM	61.2 nM			
NC1=N[C@@]2(c3c(F)cc(F)cc3F)CO[C@@H](C3CC3)C[C@H]2CS1 [Example 9, (4aR,6R,8aS)-6-Cyclopropyl-8a-(2,4,6-trifluorophenyl)-4,4a,5,6,8,8a-hexahydropyrano[3,4-d][1,3]thiazin-2-amine]	1050 nM	57.2 nM			
NC1=N[C@@]2(c3ccc(F)cc3)CO[C@@H](C3CC3)C[C@H]2CS1 [Example 10, (4aR,6R,8aS)-6-Cyclopropyl-8a-(4-fluorophenyl)-4,4a,5,6,8,8a-hexahydropyrano[3,4-d][1,3]thiazin-2-amine]	572 nM	89.7 nM			
NC1=N[C@@]2(c3cc(F)ccc3F)CO[C@@H](C3CC3)C[C@H]2CS1 [Example 11, (4aR,6R,8aS)-6-Cyclopropyl-8a-(2,5-difluorophenyl)-4,4a,5,6,8,8a-hexahydropyrano[3,4-d][1,3]thiazin-2-amine]	1420 nM	85.1 nM			
NC1=N[C@@]2(c3c(F)cccc3F)CO[C@@H](C3CC3)C[C@H]2CS1 [Example 12, (4aR,6R,8aS)-6-Cyclopropyl-8a-(2,6-difluorophenyl)-4,4a,5,6,8,8a-hexahydropyrano[3,4-d][1,3]thiazin-2-amine]	395 nM	34.6 nM			
NC1=N[C@@]2(c3ccccc3F)CO[C@@H](C3CC3)C[C@H]2CS1 [Example 13, (4aR,6R,8aS)-6-Cyclopropyl-8a-(2-fluorophenyl)-4,4a,5,6,8,8a-hexahydropyrano[3,4-d][1,3]thiazin-2-amine]	422 nM	40 nM			
NC1=N[C@@]2(c3ccccc3)CO[C@@H](C3CC3)C[C@H]2CS1 [Example 14, (4aR,6R,8aS)-6-Cyclopropyl-8a-phenyl-4,4a,5,6,8,8a-hexahydropyrano[3,4-d][1,3]thiazin-2-amine]	1280 nM	142 nM			
Cc1ccc([C@]23CO[C@@H](C4CC4)C[C@H]2CSC(N)=N3)c(F)c1 [Example 15, (4aR,6R,8aS)-6-Cyclopropyl-8a-(2-fluoro-4-methylphenyl)-4,4a,5,6,8,8a-hexahydropyrano[3,4-d][1,3]thiazin-2-amine]	715 nM	72.1 nM			
Cc1ccc([C@]23CO[C@@H](C4CC4)C[C@H]2CSC(N)=N3)cc1F [Example 16, (4aR,6R,8aS)-6-Cyclopropyl-8a-(3-fluoro-4-methylphenyl)-4,4a,5,6,8,8a-hexahydropyrano[3,4-d][1,3]thiazin-2-amine]	897 nM	92.3 nM			
NC1=N[C@]2(c3ccccc3F)CO[C@H](C3CC3)C[C@@H]2CS1 [Example 17, (4aS,6S,8aR)-6-Cyclopropyl-8a-(2-fluorophenyl)-4,4a,5,6,8,8a-hexahydropyrano[3,4-d][1,3]thiazin-2-amine]	25700 nM	1560 nM			
NC1=N[C@]2(c3ccc(F)cc3)CO[C@H](C3CC3)C[C@@H]2CS1 [Example 18, (4aS,6S,8aR)-6-Cyclopropyl-8a-(4-fluorophenyl)-4,4a,5,6,8,8a-hexahydropyrano[3,4-d][1,3]thiazin-2-amine]	15600 nM	2220 nM			
CC1(C)CCC([C@H]2C[C@H]3CSC(N)=N[C@@]3(c3ccc(F)cc3F)CO2)O1 (stereo partly drawn) [Example 19, (4aR,6R,8aS)-8a-(2,4-Difluorophenyl)-6-(5,5-dimethyltetrahydrofuran-2-yl)-4,4a,5,6,8,8a-hexahydropyrano[3,4-d][1,3]thiazin-2-amine]	184 nM	17.9 nM			
C[C@@H]1C[C@H]1[C@H]1C[C@H]2CSC(N)=N[C@@]2(c2ccc(F)cc2F)CO1 [Example 20, (4aR,6R,8aS)-8a-(2,4-Difluorophenyl)-6-[(1R,2R)-2-methylcyclopropyl]-4,4a,5,6,8,8a-hexahydropyrano[3,4-d][1,3]thiazin-2-amine]	116 nM	16.2 nM			
NC1=N[C@@]2(c3ccc(F)cc3F)CO[C@@H]([C@@H]3CCCO3)C[C@H]2CS1 [Example 21, (4aR,6R,8aS)-8a-(2,4-Difluorophenyl)-6-[(2S)-tetrahydrofuran-2-yl]-4,4a,5,6,8,8a-hexahydropyrano[3,4-d][1,3]thiazin-2-amine]	302 nM	39.7 nM			
NC1=N[C@]2(c3ccc(F)cc3F)CO[C@H](C3CC3)C[C@@H]2CS1 [Example C23, (4aS,6S,8aR)-6-cyclopropyl-8a-(2,4-difluorophenyl)-4,4a,5,6,8,8a-hexahydropyrano[3,4-d][1,3]thiazin-2-amine]				essentially inactive	17300 nM
Cl.NC1=N[C@]2(c3ccc(F)cc3F)CO[C@H](C3CC3)C[C@@H]2[C@H](CF)S1 [Example C48, (4R,4aS,6S,8aR)-6-cyclopropyl-8a-(2,4-difluorophenyl)-4-(fluoromethyl)-4,4a,5,6,8,8a-hexahydropyrano[3,4-d][1,3]thiazin-2-amine, hydrochloride salt]	> 100000 nM	> 30000 nM		inactive	
CC1([C@@H]2C[C@@H]3CSC(N)=N[C@]3(c3ccc(F)cc3F)CO2)CC1 [Example C61, (4aS,6S,8aR)-8a-(2,4-difluorophenyl)-6-(1-methylcyclopropyl)-4,4a,5,6,8,8a-hexahydropyrano[3,4-d][1,3]thiazin-2-amine]	37000 nM	2890 nM		essentially inactive	
NC1=N[C@]2(c3ccc(F)cc3F)CO[C@H](CC3CC3)C[C@@H]2CS1 [Example C74, (4aS,6R,8aR)-6-(cyclopropylmethyl)-8a-(2,4-difluorophenyl)-4,4a,5,6,8,8a-hexahydropyrano[3,4-d][1,3]thiazin-2-amine]	> 86000 nM	7400 nM		essentially inactive	
